Results reported in patent publication US12583858B2 (Genentech, Inc., priority 2015, dated 2026).

target: T1, TDO2 (Homo sapiens, UniProt P48775); experiment: TDO2 cell assay (NFK GreenScreen, SW48 cells); type: cell-based; conditions: SW48 cells (high TDO expressing), 200 uM tryptophan, 24 hours; Table 3; read-out: TDO2 Cell Fluor EC50
T1 construct: decreased levels of NFK in SW48 cells (high TDO expressing cells)
T1 sequence (P48775 whole entry): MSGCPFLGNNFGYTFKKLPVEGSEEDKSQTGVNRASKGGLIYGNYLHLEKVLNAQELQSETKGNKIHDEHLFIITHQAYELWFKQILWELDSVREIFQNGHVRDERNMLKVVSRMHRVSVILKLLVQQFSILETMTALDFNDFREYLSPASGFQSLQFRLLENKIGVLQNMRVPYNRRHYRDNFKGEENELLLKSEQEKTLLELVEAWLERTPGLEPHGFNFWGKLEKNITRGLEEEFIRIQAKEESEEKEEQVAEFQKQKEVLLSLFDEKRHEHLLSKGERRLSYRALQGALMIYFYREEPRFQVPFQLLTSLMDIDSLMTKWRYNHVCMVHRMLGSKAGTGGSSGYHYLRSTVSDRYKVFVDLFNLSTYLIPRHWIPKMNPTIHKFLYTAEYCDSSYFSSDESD

EC50 [µM]	SMILES
0.086	O=S(=O)(C1CC1)N1CCC(C2c3ccccc3-c3cncn32)C(O)C1 (mixture of isomers) [Example 77b, (3S,4SR)-1-(cyclopropylsulfonyl)-4-((S)-5H-imidazo[5,1-a]isoindol-5-yl)piperidin-3-ol]
2.86	OC1(C2c3ccccc3-c3cncn32)CCOCC1 (racemic) [Example 43, 4-(5H-imidazo[5,1-a]isoindol-5-yl)tetrahydro-2H-pyran-4-ol]
6.84	CC(C)(O)C1c2ccccc2-c2cncn21 (racemic) [Example 44, 2-(5H-imidazo[5,1-a]isoindol-5-yl)propan-2-ol]
7.26	OC1(C2c3ccccc3-c3cncn32)COC1 (racemic) [Example 48, 3-(5H-imidazo[5,1-a]isoindol-5-yl)oxetan-3-ol]
0.17	OC1(C2c3ccccc3-c3cncn32)CCC(F)(F)CC1 (racemic) [Example 53, 4,4-difluoro-1-(5H-imidazo[5,1-a]isoindol-5-yl)cyclohexan-1-ol]
3.4	OC1(C2c3ccccc3-c3cncn32)CC(CF)(CF)C1 (racemic) [Example 54, 3,3-bis(fluoromethyl)-1-(5H-imidazo[5,1-a]isoindol-5-yl)cyclobutan-1-ol]
1.6	OC1(C2c3ccccc3-c3cncn32)CCCC1 (racemic) [Example 55, 1-(5H-imidazo[5,1-a]isoindol-5-yl)cyclopentan-1-ol]
0.89	O=S1(=O)CC(C2c3ccccc3-c3cncn32)C(O)c2ccccc21 (racemic) [Example 96a, 4-hydroxy-3-(5H-imidazo[5,1-a]isoindol-5-yl)thiochromane 1,1-dioxide]
19	C[C@@](O)(C1CCOCC1)[C@@H]1c2ccccc2-c2cncn21 (racemic) [Example 131a, Mixture of(S)-1-((R)-5H-imidazo[5,1-a]isoindol-5-yl)-1-(tetrahydro-2H-pyran-4-yl)ethan-1-ol and (R)-1-((S)-5H-imidazo[5,1-a]isoindol-5-yl)-1-(tetrahydro-2H-pyran-4-yl)ethan-1-ol]
0.81	CC1(C)CC(O)(C2c3ccccc3-c3cncn32)C1 (racemic) [Example 147a, 1-(5H-imidazo[5,1-a]isoindol-5-yl)-3,3-dimethylcyclobutan-1-ol]
> 25	O[C@@H]1CC[C@H]1[C@@H]1c2ccccc2-c2cncn21 (single isomer, unassigned) [Example 01f]
3.3	OC1CCC1C1c2ccccc2-c2cncn21 (single isomer, unassigned) [Example 01g]
16	OC1CCC1C1c2ccccc2-c2cncn21 (single isomer, unassigned) [Example 01h]
17	OC1CCCC1C1c2ccccc2-c2cncn21 (single isomer, unassigned) [Example 02e]
0.07	OC1CCCC1C1c2ccccc2-c2cncn21 (single isomer, unassigned) [Example 02f]
0.34	OC1CCCC1C1c2ccccc2-c2cncn21 (single isomer, unassigned) [Example 02g]
> 25	OC1CCCC1C1c2ccccc2-c2cncn21 (single isomer, unassigned) [Example 02h]
> 25	OC1CCCCC1C1c2ccccc2-c2cncn21 (single isomer, unassigned) [Example 03c]
0.036	OC1CCCCC1C1c2ccccc2-c2cncn21 (single isomer, unassigned) [Example 03d]

EC50 [µM]	SMILES
16	OC1CCCCC1C1c2ccccc2-c2cncn21 (single isomer, unassigned) [Example 03e]
0.3	OC1CCCCC1C1c2ccccc2-c2cncn21 (single isomer, unassigned) [Example 03f]
1.3	OC1c2cnccc2CCC1C1c2ccccc2-c2cncn21 (single isomer, unassigned) [Example 04a]
> 25	OC1c2cnccc2CCC1C1c2ccccc2-c2cncn21 (single isomer, unassigned) [Example 04b]
1	OC1c2cnccc2CCC1C1c2ccccc2-c2cncn21 (single isomer, unassigned) [Example 04c]
20	O[C@@H]1c2cnccc2CC[C@@H]1[C@H]1c2ccccc2-c2cncn21 (single isomer, unassigned) [Example 04d]
2.3	O[C@H]1c2cnccc2CC[C@@H]1[C@@H]1c2ccccc2-c2cncn21 (single isomer, unassigned) [Example 04f]
19	O[C@H]1c2cnccc2CC[C@@H]1[C@@H]1c2ccccc2-c2cncn21 (single isomer, unassigned) [Example 04g]
0.13	O[C@@H]1c2cnccc2CC[C@H]1[C@H]1c2ccccc2-c2cncn21 (single isomer, unassigned) [Example 04h]
0.56	OC1COCCC1C1c2ccccc2-c2cncn21 (single isomer, unassigned) [Example 06g]
> 25	OC1COCCC1C1c2ccccc2-c2cncn21 (single isomer, unassigned) [Example 06h]
15	OC1c2cncn2CCC1C1c2ccccc2-c2cncn21 (single isomer, unassigned) [Example 07a]
> 25	OC1c2cncn2CCC1C1c2ccccc2-c2cncn21 (single isomer, unassigned) [Example 07b]
2.2	OC1c2cncn2CCC1C1c2ccccc2-c2cncn21 (single isomer, unassigned) [Example 07e]
> 25	OC1c2cncn2CCC1C1c2ccccc2-c2cncn21 (single isomer, unassigned) [Example 07f]
0.6	O[C@H]1c2ccncc2CC[C@@H]1[C@@H]1c2ccccc2-c2cncn21 (single isomer, unassigned) [Example 08b]
5.2	O[C@H]1c2ccncc2CC[C@H]1[C@@H]1c2ccccc2-c2cncn21 (single isomer, unassigned) [Example 08c]
0.51	O[C@@H]1c2ccncc2CC[C@@H]1[C@H]1c2ccccc2-c2cncn21 (single isomer, unassigned) [Example 08d]
0.23	O[C@H]1c2ccncc2CC[C@@H]1[C@H]1c2ccccc2-c2cncn21 (single isomer, unassigned) [Example 08e]

EC50 [µM]	SMILES
12	O[C@@H]1c2ccncc2CC[C@H]1[C@@H]1c2ccccc2-c2cncn21 (single isomer, unassigned) [Example 08f]
8.3	O[C@@H]1c2ccncc2CC[C@@H]1[C@@H]1c2ccccc2-c2cncn21 (single isomer, unassigned) [Example 08g]
0.1	O[C@H]1c2ccncc2CC[C@H]1[C@H]1c2ccccc2-c2cncn21 (single isomer, unassigned) [Example 08h]
> 25	CC(=O)N1CCC(C2c3ccccc3-c3cncn32)C(O)C1 (single isomer, unassigned) [Example 09a, 1-(3-hydroxy-4-(5H-imidazo[5,1-a]isoindol-5-yl)piperidin-1-yl)ethan-1-one]
3	CC(=O)N1CCC(C2c3ccccc3-c3cncn32)C(O)C1 (single isomer, unassigned) [Example 09b, 1-(3-hydroxy-4-(5H-imidazo[5,1-a]isoindol-5-yl)piperidin-1-yl)ethan-1-one]
> 25	CC(=O)N1CCC(C2c3ccccc3-c3cncn32)C(O)C1 (single isomer, unassigned) [Example 09c, 1-(3-hydroxy-4-(5H-imidazo[5,1-a]isoindol-5-yl)piperidin-1-yl)ethan-1-one]
> 25	CC(=O)N1CCC(C2c3ccccc3-c3cncn32)C(O)C1 (single isomer, unassigned) [Example 09d, 1-(3-hydroxy-4-(5H-imidazo[5,1-a]isoindol-5-yl)piperidin-1-yl)ethan-1-one]
2.1	CC(C)(C)OC(=O)N1CCC(C2c3ccccc3-c3cncn32)C(O)C1 (single isomer, unassigned) [Example 10a, tert-butyl 3-hydroxy-4-(5H-imidazo[5,1-a]isoindol-5-yl)piperidine-1-carboxylate]
> 25	CC(C)(C)OC(=O)N1CCC(C2c3ccccc3-c3cncn32)C(O)C1 (single isomer, unassigned) [Example 10b, tert-butyl 3-hydroxy-4-(5H-imidazo[5,1-a]isoindol-5-yl)piperidine-1-carboxylate]
19	CC(C)(C)OC(=O)N1CCC(C2c3ccccc3-c3cncn32)C(O)C1 (single isomer, unassigned) [Example 10c, tert-butyl 3-hydroxy-4-(5H-imidazo[5,1-a]isoindol-5-yl)piperidine-1-carboxylate]
> 25	CC(C)(C)OC(=O)N1CCC(C2c3ccccc3-c3cncn32)C(O)C1 (single isomer, unassigned) [Example 10d, tert-butyl 3-hydroxy-4-(5H-imidazo[5,1-a]isoindol-5-yl)piperidine-1-carboxylate]
> 25	CC(C)(C)OC(=O)N1CCC(O)C(C2c3ccccc3-c3cncn32)C1 (single isomer, unassigned) [Example 11c, tert-butyl 4-hydroxy-3-(5H-imidazo[5,1-a]isoindol-5-yl)piperidine-1-carboxylate]
22	CC(C)(C)OC(=O)N1CCC(O)C(C2c3ccccc3-c3cncn32)C1 (single isomer, unassigned) [Example 11d, tert-butyl 4-hydroxy-3-(5H-imidazo[5,1-a]isoindol-5-yl)piperidine-1-carboxylate]
2.7	CC(=O)N1CCC(O)C(C2c3ccccc3-c3cncn32)C1 (single isomer, unassigned) [Example 12a]
> 25	CC(=O)N1CCC(O)C(C2c3ccccc3-c3cncn32)C1 (single isomer, unassigned) [Example 12b]
> 25	CC(=O)N1CC[C@H](O)[C@@H]([C@H]2c3ccccc3-c3cncn32)C1 (single isomer, unassigned) [Example 12c]
> 25	CC(=O)N1CC[C@@H](O)[C@H]([C@@H]2c3ccccc3-c3cncn32)C1 (single isomer, unassigned) [Example 12d]
0.36	N#CCN1CCC(O)C(C2c3ccccc3-c3cncn32)C1 (single isomer, unassigned) [Example 14a]
